# Assay: Solubility evaluation in polymerizable polysiloxane-containing formulation
# Assay type: physicochemical
# Settings: 0.06 g photochromic compound in 1.50 g polymerizable polysiloxane-containing formulation of Table 1; stirred 24 hours at room temperature; visual observation
# Protocol: A polymerizable polysiloxane-containing formulation was prepared by mixing together the ingredients and in the amounts as tabulated in the following Table 1.
# The photochromic compounds of Comparative Examples CE-1 and CE-2, and Examples 4 and 5, prepared as described in Part-1, were each added to a polymerizable polysiloxane-containing formulation according to Table 1, to form Polymerizable Photochromic Compositions A, B, C, and D, as summarized in the following Table 2. The Polymerizable Photochromic Compositions were each stirred for 24 hours at room temperature after which the solubility of the photochromic compounds was determined by visual observation.
row,SMILES,Observed Solubility
1,C=C(C)C(=O)OCCOC(=O)CCC(=O)N1CCN(c2ccc(C3(c4ccccc4)C=Cc4c5c(c6cc(N7CCCCC7)c(OC)cc6c4O3)-c3ccccc3C5(C)C)cc2)CC1 (stereo not shown) [CE-2],poor
2,C=C(C)C(=O)OCCOCCOCCOc1ccc(C2(c3ccccc3)C=Cc3c4c(c5cc(N6CCCCC6)c(OC)cc5c3O2)-c2ccc(-c3ccccc3)cc2C4(CCC)CCC)cc1 (stereo not shown) [CE-1],poor
3,C=C(C)C(=O)OCCOC(=O)CCC(=O)N1CCN(c2ccc(C3(c4ccccc4)C=Cc4c5c(c6cc(N7CCCCC7)c(OC)cc6c4O3)-c3ccc([Si](C)(C)C)cc3C5(C)C)cc2)CC1 (stereo not shown) [Example 5],excellent
4,"C=C(C)C(=O)OCCOCCOCCOc1ccc(C2(c3ccccc3)C=Cc3c4c(c5cc(N6CCCCC6)c(OC)cc5c3O2)-c2ccc(-c3ccc([Si](C)(C)C)cc3)cc2C4(CCC)CCC)cc1 (stereo not shown) [Example 4, 6-methoxy-7-(piperidin-1-yl)-11-(4-trimethylsilylphenyl)-13,13-dipropyl-3-phenyl-3-(2-(2-(1-methacroylethoxy)ethoxy)ethoxy)phenyl-3H,13H-indeno[2′,3′: 3,4]naphtho[1,2-b]pyran]",excellent
